Test results taken from US20100210668A1, “COMPOSITION AND METHOD FOR TREATMENT OR PREVENTION OF BENIGN PROSTATIC HYPERPLASIA AND LOWER URINARY TRACT SYMPTOMS” (DONG-A PHARM. CO., LTD., priority 2007, published 2010).
Like-named read-outs stand apart in the source and are kept apart here.

What was measured:
[1] = Safety Test 1: pharmacokinetics of the pyrazolopyrimidinone; assay type: in vivo; settings: male, human, plasma
Description: (§1) The safety evaluation was performed by observing vital signs (diastolic blood pressure, pulse rate, body temperature), clinical laboratory testing, electrocardiogram, adverse reactions such as subjective symptom and objective symptom. In addition, the effect of drug interaction on pharmacokinetics of the pyrazolopyrimidinone was observed.

[2] = Safety Test 2: pharmacokinetic parameters; assay type: in vivo; settings: male, human, plasma
Description: as §1, with “drug-drug” for “drug”

PDE 5 = PDE 5 (Homo sapiens, UniProt O76074); experiment: PDE 5 inhibition; assay type: biochemical
health men [3] = experiment: Safety Test 2: vital signs in supine position, Silodosin combination; assay type: in vivo, human; settings: for Diastolic blood pressure mean: the values are: Diastolic blood pressure mean
Description: (§2) The safety evaluation was performed by observing vital signs (diastolic blood pressure, pulse rate, body temperature), clinical laboratory testing, electrocardiogram, adverse reactions such as subjective symptom and objective symptom.

[4] = tested on: smooth muscle of rat prostate; experiment: Relaxation of phenylephrine-contracted rat prostatic tissue in organ bath, formula (I) and Tamsulosin; assay type: cell-based, Sprague-Dawley rat
Description: Male Sprague-Dawley rat with 300-400 g of body weight was sacrificed and the prostate was extracted and transferred to Krebs-Henseleit buffer kept cold. The dorsolateral lobes of prostatic tissue were transected to separate prostatic tissue gland with size of 2×10 mm (4 tissues per a rat). The separated tissues were transferred to organ bath where 95% O2, and 5% CO2 were emitted and Krebs-Henseleit buffer (37° C.) was contained, both ends of the tissue gland were fixed to the bath floor and force transducer connected to polygraph(Grass Instruments) respectively. Each tissue was stabilized under 0.2 standard tension for 1 hour, and then treated by 1 μM of phenylephrine to induce the contraction of prostatic tissue. […] In Table 1, data were obtained by using four (4) tissue glands were used for each concentration of the drug, and the numerical value is mean ±standard error of the percentage of contracting degree (inverse proportion to percentage of relaxation degree).

[5] = tested on: smooth muscle of rat bladder; experiment: Relaxation of carbachol-contracted rat bladder tissue in organ bath; assay type: cell-based, Sprague-Dawley rat; settings: for percentage of relaxation degree: L-NAME or Tamsulosin 10^−4M where combined
[6] = tested on: smooth muscle of rat prostate; experiment: Relaxation of contracted rat prostatic tissue in organ bath, formula (I) and Silodosin; assay type: cell-based, Sprague-Dawley rat
Description: Male Sprague-Dawley rat with 300-400 g of body weight was sacrificed and the prostate was extracted and transferred to Krebs-Henseleit buffer kept cold. The dorsolateral lobes of prostatic tissue were transected to separate prostatic tissue gland with size of 2×10 mm (4 tissues per a rat). The separated tissues were transferred to organ bath where 95% O2, and 5% CO2 were emitted and Krebs-Henseleit buffer (37° C.) was contained, both ends of the tissue gland were fixed to the bath floor and force transducer connected to polygraph(Grass Instruments) respectively.
Each tissue was stabilized for 1 hour, and then treated by 10^−5M carbachol to induce the contraction of prostatic tissue.
In Table 3, data were obtained by using four (4) tissue glands were used for each concentration of the drug, and the numerical value is mean ± standard error of the percentage of contracting degree (inverse proportion to relaxation degree).

health men [7] = experiment: Safety Test 1: vital signs in supine position, Tamsulosin combination; assay type: in vivo, human; settings: for Diastolic blood pressure mean: the values are: Diastolic blood pressure mean
Description: as §2

[8] = Pharmacokinetic characteristics in the body; assay type: in vivo
[9] = Physicochemical properties (pKa, solubility)
patients = settings: cited from earlier work
[10] = Group B: placebo + the pyrazolopyrimidinone
[11] = Group D: administered with Tamsulosin

SMILES: CCCOc1ccc(S(=O)(=O)NCCC2CCCN2C)cc1-c1nc2c(CCC)nn(C)c2c(=O)[nH]1 (stereo not drawn) [Compound of formula (I), 5-[2-propyloxy-5-(1-methyl-2-pyrolidinylethylamidosulphonyl)phenyl]-1-methyl-propyl-1,6-dihydro-7H-pyrazolo (4,3-d)pyrimidin-7-one]
- AUC(0-inf) [1, 10]: 4730 ± 1260 ng·h/mL
- Cmax [1, 10]: 617 ± 169 ng/mL
- Tmax [1, 10]: 1.5 h
- half-life [1, 10]: 9.7 ± 1.7 h
- AUC(0-inf) [1, 11]: 4910 ± 1260 ng·h/mL
- Cmax [1, 11]: 624 ± 200 ng/mL
- Tmax [1, 11]: 1.1 h
- half-life [1, 11]: 9.9 ± 2.3 h
- AUC(0-inf) ([2]; Group A: placebo + the pyrazolopyrimidinone, read-out: AUCinf Ud): 4820 ± 1320 ng·h/mL
- Cmax ([2]; Group A: placebo + the pyrazolopyrimidinone, read-out: Cmax Ud): 627 ± 158 ng/mL
- Tmax ([2]; Group A: placebo + the pyrazolopyrimidinone, read-out: Tmax (h) Ud): 1.5 h
- AUC(0-inf) ([2]; Group C: Silodosin + the pyrazolopyrimidinone, read-out: AUCinf Ud): 4940 ± 1260 ng·h/mL
- Cmax ([2]; Group C: Silodosin + the pyrazolopyrimidinone, read-out: Cmax Ud): 660 ± 196 ng/mL
- Tmax ([2]; Group C: Silodosin + the pyrazolopyrimidinone, read-out: Tmax (h) Ud): 1.3 h
- inhibition of PDE 5 (PDE 5): inhibits PDE 5 strongly
- Pulse rate mean (health men [3]): 61.4
- Diastolic blood pressure mean (health men [3]): 62.2 mmHg
- Contraction degree (%) ([4]; Compound of formula (I) 3 μM, Tamsulosin 0 nM, 1 μM phenylephrine): 92.6 ± 2.2%
- Contraction degree (%) ([4]; Compound of formula (I) 10 μM, Tamsulosin 0 nM): 77.1 ± 2.5%
- Contraction degree (%) ([4]; Compound of formula (I) 30 μM, Tamsulosin 0 nM): 62.2 ± 3.1%
- percentage of relaxation degree ([5]; Compound of formula (I) 10^−4M): 17.4 ± 3.7%
- percentage of relaxation degree ([5]; Compound of formula (I) 10^−4M, listed as pyrazolopyrimidinone of formula (I)): about 17.4%
- percentage of relaxation degree ([5]; Compound of formula (I) 10^−5M): 7.2 ± 1.6%
- percentage of relaxation degree ([5]; Compound of formula (I) 10^−6M): 2.0 ± 1.1%
- percentage of relaxation degree ([5]; Compound of formula (I) 10^−7M): 0.0 ± 0.0%
- percentage of relaxation degree ([5]; Compound of formula (I) 10^−8M, 10^−5M carbachol): 0.0 ± 0.0%
- concentration at which the relaxation effect began to be represented ([5]; administered alone): 10^−6 M
- Contraction degree (%) ([6]; Compound of formula (I) 3 μM, Silodosin 0 nM): 92.6 ± 2.2%
- Contraction degree (%) ([6]; Compound of formula (I) 10 μM, Silodosin 0 nM): 77.1 ± 2.5%
- Contraction degree (%) ([6]; Compound of formula (I) 30 μM, Silodosin 0 nM): 62.2 ± 3.1%
- Pulse rate mean (health men [7]): 60.2
- Diastolic blood pressure mean (health men [7]): 61.6 mmHg
- half life in the body compared with the sildenafil-type citrate and vardenafil-type hydrochloride named ([8]; in the body): three times longer half life
- absorption ([8]; in vivo): rapid absorption
- bioavailability ([8]; in vivo): high bioavailability
- distribution volume in the body ([8]; in vivo): high distribution volume
- pKa1 [9]: about 6.5
- pKa2 [9]: about 12.5
- solubility [9]: improved solubility
- solubility to acetic acid, methanol or chloroform ([9]; acetic acid, methanol or chloroform): high solubility
- solubility to water ([9]; water): low solubility

SMILES: C[C@H](Cc1cc2c(c(C(N)=O)c1)N(CCCO)CC2)NCCOc1ccccc1OCC(F)(F)F [Silodosin, reference compound]
- AUC(0-inf) ([2]; AUCinf Silodosin, Group B: placebo + Silodosin): 110 ± 17.6 ng·h/mL
- AUC(0-inf) ([2]; AUCinf Silodosin, Group C: Silodosin + the pyrazolopyrimidinone): 132 ± 25.2 ng·h/mL
- Cmax ([2]; Cmax Silodosin, Group B: placebo + Silodosin): 31.1 ± 7.2 ng/mL
- Cmax ([2]; Cmax Silodosin, Group C: Silodosin + the pyrazolopyrimidinone): 35.2 ± 7.8 ng/mL
- Tmax ([2]; Tmax (h) Silodosin, Group B: placebo + Silodosin): 1.4 h
- Tmax ([2]; Tmax (h) Silodosin, Group C: Silodosin + the pyrazolopyrimidinone): 1.7 h
- Pulse rate mean (health men [3]): 64.2
- Diastolic blood pressure mean (health men [3]): 62.3 mmHg
- Contraction degree (%) ([6]; Compound of formula (I) 0 μM, Silodosin 0.1 nM): 90.8 ± 1.4%
- Contraction degree (%) ([6]; Compound of formula (I) 0 μM, Silodosin 1 nM): 82.0 ± 1.7%
- Contraction degree (%) ([6]; Compound of formula (I) 0 μM, Silodosin 10 nM): 46.9 ± 1.6%

SMILES: CCOc1ccccc1OCCN[C@H](C)Cc1ccc(OC)c(S(N)(=O)=O)c1 [Tamsulosin, (R)-5-(2-(2-(2-ethoxyphenoxy)ethylamino)propyl)-2-methoxy benzensulfonamide, reference compound]
- side effect in combination of PDE 5 inhibitors (patients; administered in combination of PDE 5 inhibitors): orthostatic hypotension
- Contraction degree (%) ([4]; Compound of formula (I) 0 μM, Tamsulosin 0.25 nM): 90.8 ± 1.4%
- Contraction degree (%) ([4]; Compound of formula (I) 0 μM, Tamsulosin 1 nM): 78.8 ± 2.0%
- Contraction degree (%) ([4]; Compound of formula (I) 0 μM, Tamsulosin 4 nM): 43.6 ± 4.2%
- Pulse rate mean (health men [7]): 57.7
- Diastolic blood pressure mean (health men [7]): 63 mmHg

SMILES: COc1cc2nc(N3CCN(C(=O)C4CCCO4)CC3)nc(N)c2cc1OC (stereo not drawn) [Terazocin]
- side effect in combination of PDE 5 inhibitors (patients; human, in vivo): orthostatic hypotension

SMILES: CCCc1nc(C)c2c(=O)[nH]c(-c3cc(S(=O)(=O)N4CCN(CC)CC4)ccc3OCC)nn12 [Vardenafil]
- blood pressure effect in combination of α-adrenergic receptor antagonist (patients; combination with α-adrenergic receptor antagonist): some patients shows low blood pressure
